The values that follow come from patent publication US20260297095A1, “NOVEL PYRROLOTRIAZINE DERIVATIVE AND USE THEREOF” (Pelemed Co., Ltd., priority 2024, published 2026).

The structures appear in SMILES notation.

The target of one assay is YES1 kinase (Homo sapiens, UniProt P07947). As to the kind of experiment: YES1 kinase inhibition, ADP Glo assay (Promega). It is filed as biochemical. To be noted: for inhibition at 0.01 µM: compound 10 nM, read-out: YES1 enzyme, % inhibition, 10 nM; for inhibition at 0.1 µM: compound 100 nM, read-out: YES1 enzyme, % inhibition, 100 nM; for IC50: class symbols, read-out: YES1 enzyme, IC50; for YES1 kinase inhibition at 1 nM (in words) / inhibition at 0.001 µM: compound 1 nM; for inhibition at 0.001 µM: read-out: YES1 enzyme, % inhibition, 1 nM. An outline of the steps: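 ADP-Glo luminescence after a 40 min room-temperature reaction of YES1 with ATP and substrate (buffer with MnCl2 and DTT; 10 min compound preincubation) was used as readout. Percent inhibition at 1, 10 and 100 nM compound was calculated relative to negative control after background subtraction, and IC50 values derived.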
Sequence of YES1 kinase (P07947 whole entry): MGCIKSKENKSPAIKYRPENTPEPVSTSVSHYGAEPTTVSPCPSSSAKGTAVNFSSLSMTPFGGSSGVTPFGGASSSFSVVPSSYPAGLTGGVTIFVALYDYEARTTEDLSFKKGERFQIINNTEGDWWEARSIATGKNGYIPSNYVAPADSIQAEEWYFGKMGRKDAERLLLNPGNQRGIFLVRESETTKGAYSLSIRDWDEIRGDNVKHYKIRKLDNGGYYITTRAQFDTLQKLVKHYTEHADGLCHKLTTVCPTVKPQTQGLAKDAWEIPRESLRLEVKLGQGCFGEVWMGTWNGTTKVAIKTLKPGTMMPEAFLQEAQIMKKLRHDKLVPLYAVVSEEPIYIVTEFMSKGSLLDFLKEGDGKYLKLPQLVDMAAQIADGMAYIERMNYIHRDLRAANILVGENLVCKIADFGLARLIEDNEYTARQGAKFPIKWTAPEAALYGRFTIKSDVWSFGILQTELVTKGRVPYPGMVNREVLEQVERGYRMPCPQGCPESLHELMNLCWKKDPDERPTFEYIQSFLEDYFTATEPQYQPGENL

The subject of assay [1] is KYSE-70 esophageal cancer cell line. As to the kind of experiment: Cell growth inhibition of KYSE-70 (Sulforhodamine B). It is filed as cell-based. Conditions: Homo sapiens; KYSE-70, 72 hours; read-out: KYSE70 GI50. An outline of the steps: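 KYSE-70 cells (YES1-amplified) in RPMI-1640 with 10% FBS were seeded 24 h before treatment with compound at 0.0046–10 µM final. After 72 h, cells were TCA-fixed and stained with sulforhodamine B, with absorbance read at 510 nm. GI50 was derived with a time-zero plate set to 0% and the vehicle control to 100%, in duplicate tests.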

A word on the inhibition: it is the drop in the measured response relative to a control, in per cent. Usually GI50 stands for the concentration giving 50% growth inhibition. `COc1cc(-c2cc(N3CCC(N)C(C)C3)n3ncnc(N)c23)ccc1NC(=O)OC(C)(C)C` (stereo not drawn) [Example 48, tert-butyl (4-(4-amino-7-(4-amino-3-methylpiperidin-1-yl)pyrrolo[2,1-f][1,2,4]triazin-5-yl)-2-methoxyphenyl)carbamate]: at YES1 kinase, the inhibition at 0.01 µM stood at 70% and the inhibition at 0.1 µM was 96%. For the same compound, the GI50 in assay [1] is at most 100 nM.
The matching figures for `COc1cc(-c2cc(N3C[C@@H]4[C@H](C3)[C@H]4N(C)C)n3ncnc(N)c23)ccc1NC(=O)OC(C)(C)C` [Example 42, tert-butyl (4-(4-amino-7-((1R,5S,6s)-6-(dimethylamino)-3-azabicyclo[3.1.0]hexan-3-yl)pyrrolo[2,1-f][1,2,4]triazin-5-yl)-2-methoxyphenyl)carbamate]: 63%, 90% and at most 100 nM.
As a reminder, the IC50 is the midpoint of a concentration-inhibition curve. Turning to `COc1cc(-c2cc(N3CCC(N)CC3)n3ncnc(N)c23)ccc1NC(=O)c1ccco1` [Example 137, N-(4-(4-amino-7-(4-aminopiperidin-1-yl)pyrrolo[2,1-f][1,2,4]triazin-5-yl)-2-methoxyphenyl)furan-2-carboxamide], the IC50 at YES1 kinase is at most 100 nM. For the same compound, the GI50 in assay [1] lay within 100 to 1000 nM.
As to `CN(C)C1CCN(c2cc(-c3ccc(Oc4ccccc4)cc3)c3c(N)ncnn23)CC1` [Example 136, 7-(4-(dimethylamino)piperidin-1-yl)-5-(4-phenoxyphenyl)pyrrolo[2,1-f][1,2,4]triazin-4-amine], at YES1 kinase, the inhibition at 0.01 µM came to 64% and the inhibition at 0.1 µM amounted to 90%. Further, the concentration for 50% growth inhibition (GI50) in assay [1] was at most 100 nM.
The corresponding values for `COc1cc(-c2cc(N3CCC(N)CC3)n3ncnc(N)c23)ccc1NC(=O)OC(C)(C)C` [Example 12, tert-butyl (4-(4-amino-7-(4-aminopiperidin-1-yl)pyrrolo[2,1-f][1,2,4]triazin-5-yl)-2-methoxyphenyl)carbamate] are 65%, 86% and 100 to 1000 nM.
Regarding `COc1cc(-c2cc(N3CC[C@@H](N)[C@@H](F)C3)n3ncnc(N)c23)ccc1NC(=O)OC(C)(C)C` [Example 46, tert-butyl (4-(4-amino-7-((3S,4R)-4-amino-3-fluoropiperidin-1-yl)pyrrolo[2,1-f][1,2,4]triazin-5-yl)-2-methoxyphenyl)carbamate], on YES1 kinase, the inhibition at 0.01 µM came out at 52% and the inhibition at 0.1 µM turned out to be 77%. Further, the 50% growth inhibitory concentration (GI50) in assay [1] was 100 to 1000 nM.
`COc1cc(-c2cc(N3CC4(CCN(C)CC4)C3)n3ncnc(N)c23)ccc1NC(=O)OC(C)(C)C` [Example 38, tert-butyl (4-(4-amino-7-(7-methyl-2,7-diazaspiro[3.5]nonan-2-yl)pyrrolo[2,1-f][1,2,4]triazin-5-yl)-2-methoxyphenyl)carbamate]: on YES1 kinase, the inhibition at 0.01 µM was found to be 44% and the inhibition at 0.1 µM turned out to be 80%. Besides, in assay [1], the GI50 is at most 100 nM.
For the compound `COc1cc(-c2cc(N3CCC(CN)C(C)(C)C3)n3ncnc(N)c23)ccc1NC(=O)OC(C)(C)C` (stereo not drawn) [Example 104, tert-butyl (4-(4-amino-7-(4-(aminomethyl)-3,3-dimethylpiperidin-1-yl)pyrrolo[2,1-f][1,2,4]triazin-5-yl)-2-methoxyphenyl)carbamate], on YES1 kinase, the “YES1 kinase inhibition at 1 nM (in words)” value is listed as “could be inhibited even at a low concentration of 1 nM”, the inhibition at 0.001 µM was 33% and the inhibition at 0.01 µM came out at 45%. The concentration for 50% growth inhibition (GI50) in assay [1] lay within 100 to 1000 nM.
As for `CNC1CCN(c2c(F)c(-c3ccc(NC(=O)OC(C)(C)C)c(OC)c3)c3c(N)ncnn23)CC1` [Example 129, tert-butyl (4-(4-amino-6-fluoro-7-(4-(methylamino)piperidin-1-yl)pyrrolo[2,1-f][1,2,4]triazin-5-yl)-2-methoxyphenyl)carbamate], on YES1 kinase, the IC50 was at most 100 nM, the inhibition at 0.01 µM was found to be 70% and the inhibition at 0.1 µM was found to be 92%. In addition, the 50% growth inhibitory concentration (GI50) in assay [1] was at most 100 nM.
As for `COc1cc(-c2cc(N3CCC(CCN(C)C)CC3)n3ncnc(N)c23)ccc1NC(=O)OC(C)(C)C` [Example 109, tert-butyl (4-(4-amino-7-(4-(2-(dimethylamino)ethyl)piperidin-1-yl)pyrrolo[2,1-f][1,2,4]triazin-5-yl)-2-methoxyphenyl)carbamate], at YES1 kinase, the IC50 is at most 100 nM, the inhibition at 0.001 µM turned out to be 37% and the inhibition at 0.01 µM came out at 51%. Also, in assay [1], the GI50 is at most 100 nM.
`COc1cc(-c2cc(N3CCC[C@@H](CN(C)C)C3)n3ncnc(N)c23)ccc1NC(=O)OC(C)(C)C` [Example 40, tert-butyl (S)-(4-(4-amino-7-(3-((dimethylamino)methyl)piperidin-1-yl)pyrrolo[2,1-f][1,2,4]triazin-5-yl)-2-methoxyphenyl)carbamate]: at YES1 kinase, the inhibition at 0.01 µM amounted to 5% and the inhibition at 0.1 µM stood at 43%. The GI50 in assay [1] was in the range of 1000 to 10000 nM.
On to `COc1cc(-c2cc(N3CCC(CN(C)C)C3)n3ncnc(N)c23)ccc1NC(=O)OC(C)(C)C` (stereo not drawn) [Example 20, tert-butyl (4-(4-amino-7-(3-((dimethylamino)methyl)pyrrolidin-1-yl)pyrrolo[2,1-f][1,2,4]triazin-5-yl)-2-methoxyphenyl)carbamate], for which, at YES1 kinase, the inhibition at 0.01 µM stood at 36% and the inhibition at 0.1 µM amounted to 70%. The concentration for 50% growth inhibition (GI50) in assay [1] is 100 to 1000 nM.
On to `COc1cc(-c2cc(N3CC4CC(C3)C4N)n3ncnc(N)c23)ccc1NC(=O)OC(C)(C)C` (stereo not drawn) [Example 93, tert-butyl (4-(4-amino-7-(6-amino-3-azabicyclo[3.1.1]heptan-3-yl)pyrrolo[2,1-f][1,2,4]triazin-5-yl)-2-methoxyphenyl)carbamate], for which, on YES1 kinase, the inhibition at 0.01 µM was 14% and the inhibition at 0.1 µM turned out to be 48%. Besides, the GI50 in assay [1] was in the range of 100 to 1000 nM.
On to `COc1cc(-c2cc(N3CCC(CN(C)C)CC3)n3ncnc(N)c23)ccc1NC(=O)OC(C)(C)C` [Example 19, tert-butyl (4-(4-amino-7-(4-((dimethylamino)methyl)piperidin-1-yl)pyrrolo[2,1-f][1,2,4]triazin-5-yl)-2-methoxyphenyl)carbamate], for which, at YES1 kinase, the inhibition at 0.01 µM was determined as 69% and the inhibition at 0.1 µM stood at 86%. In assay [1], the concentration for 50% growth inhibition (GI50) was at most 100 nM.
Regarding `COc1cc(-c2cc(N3CC4CC3CC4N)n3ncnc(N)c23)ccc1NC(=O)OC(C)(C)C` (stereo not drawn) [Example 51, tert-butyl (4-(4-amino-7-(5-amino-2-azabicyclo[2.2.1]heptan-2-yl)pyrrolo[2,1-f][1,2,4]triazin-5-yl)-2-methoxyphenyl)carbamate], on YES1 kinase, the inhibition at 0.01 µM was found to be 70% and the inhibition at 0.1 µM was determined as 90%. In addition, the 50% growth inhibitory concentration (GI50) in assay [1] lay within 100 to 1000 nM.
On to `COc1cc(-c2cc(N3CCC(N)(C(F)(F)F)CC3)n3ncnc(N)c23)ccc1NC(=O)OC(C)(C)C` [Example 83, tert-butyl (4-(4-amino-7-(4-amino-4-(trifluoromethyl)piperidin-1-yl)pyrrolo[2,1-f][1,2,4]triazin-5-yl)-2-methoxyphenyl)carbamate], for which, on YES1 kinase, the “YES1 kinase inhibition at 1 nM (in words)” value is recorded as “could be inhibited even at a low concentration of 1 nM”, the inhibition at 0.001 µM is 14% and the inhibition at 0.01 µM stood at 24%. Also, the concentration for 50% growth inhibition (GI50) in assay [1] was 100 to 1000 nM.
